{"source": "patent US20060247258A1", "about": "“Use of levocetirizine for the treatment of persistent allergic rhinitis” (UCB Farchim S.A., priority 2002, published 2006)", "type_in_all_cases": "in vivo, adult patients", "key": {"[1]": {"test_system": "persistent allergic rhinitis", "test": "Clinical study in persistent allergic rhinitis: Total 5 Symptoms Score (T5SS)", "excerpt": "(§1) For clinical symptoms, it was considered that a 1 point score reduction is clinically relevant. For health-related quality of life, it was considered that a 0.36 point score reduction is relevant. Secondary parameters of efficacy included different durations of treatment, different symptoms, different quality of life questionnaires, the incidence of co-morbidities suspected to be linked to allergic rhinitis and pharmaco-economic variables.\n(§2) The target population of this example consisted of adults aged more than 18 years suffering from persistent allergic rhinitis [WHO Initiative on Allergic Rhinitis and its Impact on Asthma (ARIA), 2000, pages S147-S149]. To be enrolled, the subjects needed to have sufficient rhinitis symptoms during the selection period. Excluded were patients with ENT or eye infection during the 2-weeks preceding initial visit.\n(§3) The study was a prospective, randomized, double blind, parallel group, and placebo-controlled study with levocetirizine dihydrochloride.\n(§4) The severity of clinical symptoms was rated by the T5SS (sneezing, rhinorrhea, nasal pruritus, ocular pruritus and nasal congestion) evaluated each by a score from 0 to 3. The impact on health related quality of life was measured using the Rhinoconjunctivitis Quality of Life Questionnaire (RQLQ) (E. JUNIPER and G. H. GUYAIT, Development and testing of a new measure of health status for clinical trials in rhinoconjunctivitis, Clinical and Experimental Allergy 1991; 21:77-83; E. JUNIPER, Measuring Health Related Quality of Life in rhinitis, J. Allergy Clin. Immunol. 1997; 99:S742-9).\n(§5) Study treatment lasted for 6 months. After the treatment period, patients entered a 1-week follow-up period.\n(§6) The primary end-point for efficacy was a decrease of the T5SS over the first 4 weeks of at least 1 unit of score. The primary end-point for quality of life was a decrease of RQLQ after 4 weeks of at least 0.36 unit of the total score.\n(§7) Secondary parameters of efficacy included the mean T5SS, the RQLQ and the SF-36 questionnaire at the different time points of the study, and the incidence and the duration of rescue medication over 6 months.\n(§8) Oral tablets of levocetirizine dihydrochloride (5 mg) and matching placebo, similar in appearance, shape and taste were used. The recommended study dosage was 1 tablet per day."}, "[2]": {"test_system": "persistent allergic rhinitis", "test": "Clinical study in persistent allergic rhinitis: Rhinoconjunctivitis Quality of Life Questionnaire (RQLQ)", "excerpt": "as §1, §2, §3, §4, §5, §6, §7, §8\nSample size was based on 40% relative improvement over placebo in the RQLQ questionnaire, assuming an improvement from baseline for placebo of 0.9. For this questionnaire this corresponds to a difference of 0.36 vs. placebo."}, "[3]": {"test_system": "persistent allergic rhinitis", "test": "Clinical study in persistent allergic rhinitis: individual rhinitis symptom scores (nasal congestion, sneezing, rhinorrhea, nasal pruritus, ocular pruritus)", "details": "for Effect on nasal congestion / nasal obstruction (in words): long term treatment", "excerpt": "as §1, §2, §3, §4, §5\nExploratory parameters of efficacy included the mean of each individual rhinitis score, each RQLQ domain and each scale of the SF-36 questionnaire at the different time points of the study, the Global Evaluation Scale after 4 weeks and 6 months, the incidence of co-morbidities suspected to be linked to allergic rhinitis and the pharmaco-economic direct and indirect costs over 6 months.\nas §8"}, "[4]": {"test_system": "persistent allergic rhinitis", "test": "Clinical study in persistent allergic rhinitis: safety of long-term treatment", "details": "5 mg once per day; 6 month treatment", "excerpt": "The aim of the study relative to the clinical effect of levocetirizine dihydrochloride was to establish on the intention to treat (ITT population) whether a 6 month levocetirizine dihydrochloride treatment can improve the quality of life and clinical symptoms from adult patients suffering from persistent allergic rhinitis, when compared to placebo. For clinical symptoms, it was considered that a 1 point score reduction is clinically relevant. For health-related quality of life, it was considered that a 0.36 point score reduction is relevant. Secondary parameters of efficacy included different durations of treatment, different symptoms, different quality of life questionnaires, the incidence of co-morbidities suspected to be linked to allergic rhinitis and pharmaco-economic variables. The safety of this long-term treatment with levocetirizine dihydrochloride has also been evaluated.\nAt each of the eight visits, diary book entries (T5SS, RQLQ, SF-36, indirect cost pharmaco-economic parameters, concomitant medication, outpatient consultations and adverse events) were verified and transferred into the Clinical Record Form and direct cost pharmaco-economic parameters were recorded. Patients underwent a physical examination, including the measurement of vital signs. […]\nAdverse events were recorded by the patients on diary cards and discussed with the investigator at each visit. […]"}, "[5]": {"details": "5 mg once per day, 6 month treatment"}, "[6]": {"details": "5 mg oral tablet once per day, over the first four weeks of treatment, ITT population"}, "[7]": {"details": "5 mg oral tablet once per day, after first 4 weeks of treatment, ITT population"}, "[8]": {"details": "5 mg, 3 months, evaluated over the 24 hours, ITT population"}, "[9]": {"details": "5 mg, 4.5 months, evaluated over the 24 hours, ITT population"}, "[10]": {"details": "5 mg, 6 months, evaluated over the 24 hours, ITT population"}, "[11]": {"details": "5 mg, First 4 weeks, evaluated over the 24 hours, ITT population"}, "[12]": {"details": "5 mg, Week 1, evaluated over the 24 hours, ITT population"}}, "note": "Counter-ions that a name gives are not always drawn.", "data": [{"compound": "O=C(O)COCCN1CCN([C@H](c2ccccc2)c2ccc(Cl)cc2)CC1", "note": "[Lctz, levocetirizine dihydrochloride]", "values": [{"measurement": "Duration of effect on rhinitis", "setting": "[1]; [5]", "value": "has an effect on rhinitis up to 6 months"}, {"measurement": "Tachyphylaxis (need to adjust the dosing schedule)", "setting": "[1]; 5 mg once per day, during 6 months", "value": "lack of tachyphylaxis"}, {"measurement": "Mean T5SS, Adjusted mean (adjusted for baseline score and country)", "setting": "[1]; [6]", "value": 5.43}, {"measurement": "Mean T5SS, Mean (SD)", "setting": "[1]; [6]", "value": "5.53 (2.52)"}, {"measurement": "Mean T5SS, Diff. vs. placebo (95% CI), placebo minus Lctz 5 mg", "setting": "[1]; 5 mg oral tablet once per day, over the first four weeks of treatment, ITT population, dihydrochloride", "value": 1.14}, {"measurement": "Duration of effect on quality of life", "setting": "[2]; [5]", "value": "has an effect on quality of life up to 6 months"}, {"measurement": "Change from baseline of the RQLQ Overall Score, Adjusted Mean (adjusted for baseline score and country)", "setting": "[2]; [7]", "value": "−1.49"}, {"measurement": "Change from baseline of the RQLQ Overall Score, Mean", "setting": "[2]; [7]", "value": "−1.50"}, {"measurement": "Change from baseline of the RQLQ Overall Score, Diff. vs. placebo (95% CI), placebo minus Lctz 5 mg", "setting": "[2]; 5 mg oral tablet once per day, after first 4 weeks of treatment, ITT population, dihydrochloride", "value": 0.48}, {"measurement": "Improvement of sneezing, rhinorrhea, nasal pruritus and ocular pruritus", "setting": "[3]; 5 mg once per day, at all time points, vs. placebo", "value": "statistically significant improvement"}, {"measurement": "Effect on nasal congestion / nasal obstruction (in words)", "setting": "[3]; 5 mg once per day, listed as Levocetirizine, dihydrochloride", "value": "active on nasal obstruction after a long term treatment (equal or more than 3 months)"}, {"measurement": "Effect on nasal congestion / nasal obstruction (in words)", "setting": "[3]; 5 mg once per day, listed as levocetirizine dihydrochloride, dihydrochloride", "value": "has an effect on nasal congestion after 3 months"}, {"measurement": "Nasal congestion symptoms, Adjusted Mean", "setting": "[3]; [8]", "value": 1.16}, {"measurement": "Nasal congestion symptoms, Mean (SD)", "setting": "[3]; [8]", "value": "1.22 (0.78)"}, {"measurement": "Nasal congestion symptoms, Diff. vs. (95% CI), placebo minus Lctz", "setting": "[3]; 5 mg, 3 months, evaluated over the 24 hours, ITT population, dihydrochloride", "value": 0.15}, {"measurement": "Nasal congestion symptoms, Adjusted Mean", "setting": "[3]; [9]", "value": 1.11}, {"measurement": "Nasal congestion symptoms, Mean (SD)", "setting": "[3]; [9]", "value": "1.17 (0.77)"}, {"measurement": "Nasal congestion symptoms, Adjusted Mean", "setting": "[3]; [10]", "value": 1.08}, {"measurement": "Nasal congestion symptoms, Mean (SD)", "setting": "[3]; [10]", "value": "1.13 (0.76)"}, {"measurement": "Nasal congestion symptoms, Adjusted Mean", "setting": "[3]; [11]", "value": 1.40}, {"measurement": "Nasal congestion symptoms, Mean (SD)", "setting": "[3]; [11]", "value": "1.44 (0.78)"}, {"measurement": "Nasal congestion symptoms, Adjusted Mean", "setting": "[3]; [12]", "value": 1.58}, {"measurement": "Nasal congestion symptoms, Mean (SD)", "setting": "[3]; [12]", "value": "1.61 (0.83)"}, {"measurement": "Safety of long-term administration", "setting": "[4]", "value": "did not involve particular safety concerns"}]}]}
